{"source": "patent US5391817A", "about": "“Biaryl phospholipase A2 inhibitors” (Bristol-Myers Squibb, priority 1993, dated 1995)"}
{"molecular_target": "T1, PLA2 (Homo sapiens, UniProt P14555)", "T1 construct": "The enzyme is isolated from human platelets; from tissue; host or cells: human platelets", "T1 sequence (P14555 21-144)": "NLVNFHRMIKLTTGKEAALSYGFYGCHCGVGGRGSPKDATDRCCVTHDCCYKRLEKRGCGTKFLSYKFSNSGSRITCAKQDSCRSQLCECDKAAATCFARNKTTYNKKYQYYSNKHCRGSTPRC", "experiment": "PLA2 Inhibition Assay (14C-oleate labeled E. coli membrane substrate)", "format": "biochemical", "details": "100 μM (sic, Table 6); PLA2 from human platelets; pH 7, 37° C.", "description": "(§1) The method used is similar to that reported by Franson, et al. [Jesse, R. L. and Franson R. C., Biochim. Biophys. Acta 575: 467-470 (1979); Franson, R. C., Patriarca, P., and Elsback, P., J. Lipid Res. 15: 380-388 (1974)]. The enzyme is isolated from human platelets. The substrate used consists of ^14 C-oleate labeled Escherichia coli membranes. E. coli cells are grown in the presence of ^14 C-oleic acid and then autoclaved to prepare the membranes.\n(§2) Various concentrations of test compounds are preincubated with PLA2 (3.6 mg/mL in a buffer consisting of 25 mM HEPES (pH 7)), 150 mM NaCl, 5.0 mM CaCl2, and 10% DMSO (v/v, test compound solvent) at 37° C. for 7 minutes. The E. coli substrate is then added (0.1 mM phospholipid, 0,005 mCi ^14 C) and the reaction is then incubated at 37° C. for 30 minutes. The reaction is then terminated by the addition of 1.9 mL tetrahydrofuran (THF), and the entire solution is applied to a solid-phase extraction column (aminopropyl resin, Analytichem). The column is rinsed with an additional 1 mL of THF. The free fatty acid product of the reaction is then eluted from the column with 1 mL 2% acetic acid in THF and collected in a scintillation vial. The amount of free fatty acid product is determined by liquid scintillation counting. The amount of inhibition produced by the test compound is calculated by comparing the counts obtained in the presence of the compound to those obtained in its absence (solvent only). Background counts were determined by performing incubations in the absence of enzyme.\n(§3) Percent inhibition is determined by the equation: [formula]", "units": {"% Inhibition of PLA2 at 100 .infin.M": "%"}}
{"smiles": "CC1(C)CCC(C)(C)c2cc(COc3ccccc3-c3ccccc3C(=O)O)ccc21", "note": "[Structure 52c, 2-[5,6,7,8-tetrahydro-5,5,8,8-tetramethyl-2-naphthalenyl]methoxy-[1,1'-biphenyl]-2'-carboxylic acid]", "% Inhibition of PLA2 at 100 .infin.M": 72}
{"smiles": "CC1(C)CCC(C)(C)c2cc(COc3ccccc3-c3ccc(C(=O)O)cc3)ccc21", "note": "[Structure 52b, 2-[5,6,7,8-tetrahydro-5,5,8,8-tetramethyl-2-naphthalenyl]methoxy-[1,1'-biphenyl]-4'-carboxylic acid]", "% Inhibition of PLA2 at 100 .infin.M": 66}
{"smiles": "CC1(C)CCC(C)(C)c2cc(COc3ccccc3-c3cccc(C(=O)O)c3)ccc21", "note": "[Structure 52a, 2-[5,6,7,8-tetrahydro-5,5,8,8-tetramethyl-2-naphthalenyl]methoxy-[1,1'-biphenyl]-3'-carboxylic acid]", "% Inhibition of PLA2 at 100 .infin.M": 83}
{"smiles": "CC1(C)CCC(C)(C)c2cc(COc3ccccc3-c3cccc(CC(=O)O)c3)ccc21", "note": "[Structure 57, 2-[5,6,7,8-tetrahydro-5,5,8,8-tetramethyl-2-naphthalenyl]methoxy-[1,1'-biphenyl]-3'-acetic acid]", "% Inhibition of PLA2 at 100 .infin.M": 92}
{"molecular_target": "T1, PLA2", "experiment": "PLA2 Inhibition Assay (14C-oleate labeled E. coli membrane substrate)", "format": "biochemical", "details": "100 μM; PLA2 from human platelets; pH 7, 37° C.", "description": "as §1, §2, §3", "units": {"inhibition at 100 µM": "%"}}
{"smiles": "CC1(C)CCC(C)(C)c2cc(COc3ccc(C(=O)O)cc3-c3ccccc3)ccc21", "note": "[Structure 44, 2-[5,6,7,8-tetrahydro-5,5,8,8-tetramethyl-2-naphthalenyl]methoxy-[1,1'-biphenyl]-5-carboxylic acid]", "inhibition at 100 µM": 70}
{"smiles": "CC1(C)CCC(C)(C)c2cc(COc3cccc(CCC(=O)O)c3-c3cccc(C(=O)O)c3)ccc21", "note": "[Structure 37d, 3'-carboxy-2-[5,6,7,8-tetrahydro-5,5,8,8-tetramethyl-2-naphthalenyl]methoxy-[1,1'-biphenyl]-6-propanoic acid]", "inhibition at 100 µM": 54}
{"smiles": "CC1(C)CCC(C)(C)c2cc(COc3cccc(CC(=O)O)c3-c3ccccc3)ccc21", "note": "[Structure 30e, 2-(5,6,7,8-tetrahydro-5,5,8,8-tetramethyl-2-naphthalenyl)methoxy-[1,1'-biphenyl]-6-acetic acid]", "inhibition at 100 µM": 59}
{"smiles": "CC(C)=CCOc1ccc(COc2cccc(/C=C/C(=O)O)c2-c2cccc(C(=O)O)c2)cc1OCC=C(C)C", "note": "[Structure 39a, 2-[3,4-his (3-methyl-2-butenyloxy)phenyl]methoxy-3'-carboxy-[1,1'-biphenyl]-6-[(E)-3-propenoic acid]]", "inhibition at 100 µM": 73}
{"smiles": "CC1(C)CCC(C)(C)c2cc(COc3cccc(/C=C/C(=O)O)c3-c3cccc(C(=O)O)c3)ccc21", "note": "[Structure 39d, 3'-carboxy-2-[5,6,7,8-tetrahydo-5,5,8,8-tetramethyl-2-naphthalenyl]methoxy-[1,1'-biphenyl]-6-[(E)-3-propenoic acid]]", "inhibition at 100 µM": 72}
{"smiles": "CCCCCCCCCCOc1ccc(COc2cccc(C(=O)O)c2-c2ccccc2)cc1", "note": "[Structure 14k, 2-[(4-decyloxy)phenyl]methoxy-[1,1'-biphenyl]-6-carboxylic acid]", "inhibition at 100 µM": 99}
{"smiles": "CC(C)=CCOc1ccc(COc2cccc(CCC(=O)O)c2-c2cccc(C(=O)O)c2)cc1OCC=C(C)C", "note": "[Structure 37a, 2-[3,4-bis(3-methyl-2-butenyloxy)phenyl]methoxy-3'-carboxy-[1,1'-biphenyl]-6-propanoic acid]", "inhibition at 100 µM": 55}
{"smiles": "CC1(C)CCC(C)(C)c2cc(COc3cccc(C(=O)O)c3-c3ccccc3)ccc21", "note": "[Structure 14n, 2-(5,6,7,8-tetrahydro-5,5,8,8-tetramethyl-2-naphthalenyl)methoxy-[1,1'-biphenyl]-6-carboxylic acid]", "inhibition at 100 µM": 90}
{"smiles": "C/C(=C\\c1cccc(CC(=O)O)c1-c1cccc(C(=O)O)c1)c1ccc2c(c1)C(C)(C)CCC2(C)C", "note": "[Structure 28b, 3'-carboxy-(E)-2-[(5,6,7,8-tetrahydro-5,5,8,8,-tetramethyl-2-naphthalenyl)-1-propenyl]-[1,1'-biphenyl]-6-acetic acid]", "inhibition at 100 µM": 96}
{"smiles": "COc1cc(COc2cccc(C(=O)O)c2-c2ccccc2)ccc1C12CC3CC(CC(C3)C1)C2", "note": "[Structure 14g, 2-[4-(1-adamantyl)-3-methoxyphenyl]methoxy-[1,1'-biphenyl]-6-carboxylicacid]", "inhibition at 100 µM": 44}
{"smiles": "CC1(C)CCC(C)(C)c2cc(COc3cccc(C(=O)O)c3-c3cccc(CC(=O)O)c3)ccc21", "note": "[Structure 14q, 6-carboxy-2-[5,6,7,8-tetrahydro-5,5,8,8-tetramethyl-2-naphthalenyl]methoxy-[1,1'-biphenyl]-3'-acetic acid]", "inhibition at 100 µM": 72}
{"smiles": "CC(C)(C)c1ccc(-c2c(OCc3ccc4c(c3)C(C)(C)CCC4(C)C)cccc2C(=O)O)cc1", "note": "[Structure 14o, 2-(5,6,7,8-tetrahydro-5,5,8,8-tetramethyl-2-naphthalenyl)methoxy-[1,1'-biphenyl]-4'-(1,1-dimethylethyl)-6-carboxylic acid]", "inhibition at 100 µM": 99}
{"smiles": "CCCCCOc1ccc(COc2cccc(/C=C/C(=O)O)c2-c2cccc(C(=O)O)c2)cc1OCCCCC", "note": "[Structure 39c]", "inhibition at 100 µM": 59}
{"smiles": "CCCCCOc1ccc(COc2cccc(C(=O)O)c2-c2ccccc2)cc1OCCCCC", "note": "[Structure 14i, 2-[(3,4-bispentyloxy)phenyl]methoxy-[1,1'-biphenyl]-6-carboxylic acid]", "inhibition at 100 µM": 99}
{"smiles": "CCCCCCCCCCOc1ccc(COc2cccc(CC(=O)O)c2-c2cccc(C(=O)O)c2)cc1", "note": "[Structure 30c, 3'-carboxy-2-[4-decyloxyphenyl]methoxy-[1,1'-biphenyl]-6-acetic acid]", "inhibition at 100 µM": 99}
{"smiles": "CCCCCOc1ccc(COc2cccc(C(=O)O)c2-c2ccccc2)cc1OC(C)=O", "note": "[Structure 14f, 2-[(3-acetoxy-4-pentyloxy)phenyl]methoxy-[1,1'-biphenyl]-6-carboxylic acid]", "inhibition at 100 µM": 30}
{"smiles": "CCCCCOc1ccc(COc2cccc(C(=O)O)c2-c2cccc(C(=O)O)c2)cc1OCCCCC", "note": "[Structure 14c, 2-[(3,4-bispentyloxy)phenyl]methoxy-[1,1'-biphenyl]-6,3'-dicarboxylic acid]", "inhibition at 100 µM": 53}
{"smiles": "O=C(O)Cc1cccc(/C=C/c2ccccc2)c1-c1cccc(C(=O)O)c1", "note": "[Structure 28a, (E) 2-styryl-6-carboxymethyl-1,1'-biphenyl-3'-carboxylic acid]", "inhibition at 100 µM": 28}
{"smiles": "CCCCCOc1ccc(COc2cccc(C(=O)O)c2-c2cccc(C(F)(F)F)c2)cc1OCCCCC", "note": "[Structure 14j, 2-[(3,4-bispentyloxy)phenyl]methoxy-[1,1'-biphenyl]-3'-trifluoromethyl-6-carboxylic acid]", "inhibition at 100 µM": 98}
{"smiles": "O=C(O)Cc1cccc(OCc2ccc(OC3CCCC3)c(OC3CCCC3)c2)c1-c1cccc(C(=O)O)c1", "note": "[Structure 30b, 2-[(3,4-biscyclopentyloxy)phenyl]methoxy-3'-carboxy-[1,1'-biphenyl]-6-acetic acid]", "inhibition at 100 µM": 79}
{"smiles": "CC(C)=CCOc1ccc(COc2cccc(C(=O)O)c2-c2cccc(C(=O)O)c2)cc1OCC=C(C)C", "note": "[Structure 14b, 2-[3,4-bis(3-methyl-2-butenyloxy)phenyl]methoxy-[1,1'-biphenyl]-6,3'-dicarboxylic acid]", "inhibition at 100 µM": 20}
{"smiles": "CC1(C)CCC(C)(C)c2cc(COc3cccc(CC(=O)O)c3-c3cccc(C(=O)O)c3)ccc21", "note": "[Structure 30f, 3'-carboxy-2-(5,6,7,8-tetrahydro-5,5,8,8-tetramethyl-2-naphthalenyl)methoxy-[1,1'-biphenyl]-6-acetic acid]", "inhibition at 100 µM": 80}
{"smiles": "CCCCCCCCCCOc1ccc(COc2cccc(C(=O)O)c2-c2cccc(C(=O)O)c2)cc1OCCCCCCCCCC", "note": "[Structure 14a, 2-[(3,4-bisdecyloxy)phenyl]methoxy-[1,1'-biphenyl]-6,3'-dicarboxylic acid]", "inhibition at 100 µM": 99}
